Source: paper PMC8037161 (International Journal of Molecular Sciences, 2021)
Where two headings read alike, the source gives them in different places.

Tests used:
T4 coliphage DNA = tested on: T4 coliphage DNA; set-up: method as in earlier work; details: reference values; KEtBr known (ref 25, 47); NT ref 48 (table row: ref 45); cited from earlier work
calf thymus DNA = tested on: calf thymus DNA; set-up: method as in earlier work; details: reference values; KEtBr known (ref 25, 47); NT ref 48 (table row: ref 45); cited from earlier work
poly(dG-dC)2 = tested on: poly(dG-dC)2; set-up: method as in earlier work; details: reference values; KEtBr known (ref 25, 47); NT ref 48 (table row: ref 45); cited from earlier work
poly(dA-dT)2 = tested on: poly(dA-dT)2; set-up: method as in earlier work; details: reference values; KEtBr known (ref 25, 47); NT ref 48 (table row: ref 45); cited from earlier work
recombinant human DHFR [1] = target: T1, recombinant human DHFR (Homo sapiens, UniProt P00374); assay: Dihydrofolate reductase (DHFR) inhibition assay; format: biochemical; details: assay kit
T1 construct: purchased
T1 sequence (P00374 1-187): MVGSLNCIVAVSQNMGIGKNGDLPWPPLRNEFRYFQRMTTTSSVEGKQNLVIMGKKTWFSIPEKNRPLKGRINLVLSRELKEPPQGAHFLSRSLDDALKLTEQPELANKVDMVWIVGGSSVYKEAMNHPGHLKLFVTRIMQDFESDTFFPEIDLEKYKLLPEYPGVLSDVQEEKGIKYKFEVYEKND

pBR322 plasmid = details: cited from earlier work
recombinant human DHFR [2] = target: T1, recombinant human DHFR; set-up: method as in PMID 31892256; details: previously synthesized TMP analogs A–F; cited from earlier work

Row | SMILES | Kapp T4 DNA (T4 coliphage DNA) | Kapp Calf Thymus DNA (calf thymus DNA) | Kapp poly (dG-dC)2 (poly(dG-dC)2) | Kapp Poly (dA-dT)2 (poly(dA-dT)2) | IC50 (recombinant human DHFR [1]) | Decrease of Fluorescence (DNA-binding effect) (pBR322 plasmid; pBR322 plasmid, same conditions, 48 (table row: ref 45)) | IC50 (recombinant human DHFR [2]) | DNA-binding activity expressed as % decrease of fluorescence (pBR322 plasmid; previous study)
1 | Cn1cc(NC(=O)c2cc(NC(=O)CN=C(N)N)cn2C)cc1C(=O)NCCC(=N)N [NT, netropsin] | 830000 M⁻¹ | 870000 M⁻¹ | 250000 M⁻¹ | 8.75e+07 M⁻¹ | 20.56 ± 0.01 µM | 74% |  | 
2 | COc1ccc(CC(=O)Nc2cnc(N)nc2)c(OC)c1OC [B] |  |  |  |  |  |  | 0.99 µM | 45.18%
